Results taken from PubChem BioAssay (NCI).
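Briefly, cells in 96-well plates were exposed to five compound concentrations for 48 h, and endpoints were estimated by linear interpolation. TGI: concentration producing complete growth inhibition.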

Legend:
Experiment in all cases: DTP human tumour cell line panel, 48 h
HCT-15 colon = test system: HCT-15 colon
PC-3 prostate = test system: PC-3 prostate
EKVX NSCLC = test system: EKVX NSCLC
HS 578T breast = test system: HS 578T breast
SK-MEL-5 melanoma = test system: SK-MEL-5 melanoma
CCRF-CEM leukemia = test system: CCRF-CEM leukemia
NCI-H522 lung = test system: NCI-H522 lung
ACHN renal = test system: ACHN renal
RPMI-8226 leukemia = test system: RPMI-8226 leukemia
COLO 205 colon = test system: COLO 205 colon

| SMILES | TGI (HCT-15 colon) [µM] | TGI (PC-3 prostate) [µM] | TGI (EKVX NSCLC) [µM] | TGI (HS 578T breast) [µM] | TGI (SK-MEL-5 melanoma) [µM] | TGI (CCRF-CEM leukemia) [µM] | TGI (NCI-H522 lung) [µM] | TGI (ACHN renal) [µM] | TGI (RPMI-8226 leukemia) [µM] | TGI (COLO 205 colon) [µM] |
| --- | --- | --- | --- | --- | --- | --- | --- | --- | --- | --- |
| O=c1c(SSc2coc3cc(F)ccc3c2=O)coc2cc(F)ccc12 | 33.3 | 21.5 | 99.3 | 68 | 46.2 | 37.9 | 47.3 | 26.1 | > 100 | 43.2 |
| O=c1[nH]nc(-c2ccccc2)n1/N=C/c1c[nH]c2ccccc12 | > 100 | > 100 | > 100 | > 100 | > 100 | > 100 | > 100 | > 100 | > 100 | > 100 |
| COc1cc(OC)c2c(O)c3c(cc2c1)CC(C)(C)CC3=O | > 100 | > 100 | > 100 | > 100 | > 100 | > 100 | > 100 | > 100 | > 100 | > 100 |
| CC(C)[C@@H]1CC[C@@H](C)C[C@H]1OC(=O)/C=C1/C2C=CC(O2)C1C(=O)O[C@@H]1C[C@H](C)CC[C@H]1C(C)C (stereo not given in full) | > 100 | > 100 | > 100 | > 100 | > 100 | > 100 | > 100 | > 100 | > 100 | > 100 |
| CCOc1cc(NC(C)=O)ccc1C(=O)NN1C(=O)C(Oc2ccccc2)C1c1ccccc1 (stereo not given) | > 100 | > 100 | > 100 | > 100 | > 100 | > 100 | > 100 | > 100 | > 100 | > 100 |
| COC(=O)c1ccccc1C#CC#Cc1ccccc1C(=O)OC | > 10 | > 10 | > 10 | > 10 | > 10 | > 10 | > 10 | > 10 | > 10 | 3.28 |
| NC(=O)c1nnc2cc(F)ccc2c1N | > 100 | > 100 | > 100 | > 100 | > 100 | > 100 | > 100 | > 100 | > 100 | > 100 |
| COC(=O)C(C)(N=Cc1ccccc1)c1ccccc1 (stereo not given) | > 100 | > 100 | > 100 | > 100 | > 100 | > 100 | > 100 | > 100 | > 100 | > 100 |
| O=C1CSC(/C(=C\c2ccc(Cl)cc2)c2nc3ccccc3[nH]2)=N1 | 52.4 | 36.5 | 32.2 | 53.2 | 24.6 | > 75.7 | 12.6 | 19 | > 100 | 36.4 |
| Clc1nc(Cl)c(Cl)c(Cl)n1 | 38.1 | 34.4 | 94.4 | 53.7 | 32.2 | 15.2 | 35 | 26 | > 100 | 24.1 |
| Clc1ccc(Cc2nc3ccc(CCN4CCN(c5ccccc5)CC4)cc3[nH]2)cc1 | 39.8 | > 100 | 79.9 | 47.3 | 25.3 | > 100 | 28.4 | > 100 | 54.5 | 15.3 |
| CCCCCC(=O)N[C@@H](c1ccccc1)C(O)C(=O)OC1C[C@@]2(O)C(OC(=O)c3ccccc3)C3[C@](C)(C(=O)[C@H](O)C(=C1C)C2(C)C)C(OC1OCC(O)C(O)C1O)C[C@H]1OC[C@@]31OC(C)=O (stereo not given in full) | > 100 | > 86.4 | > 100 | 8.23 | > 100 | > 100 | 3.92 | > 100 | > 100 | 8.15 |
| O=[N+]([O-])/C(C(Cl)=C(Cl)Cl)=C1\NCCO1 | > 100 | > 100 | > 100 | 90.5 | > 100 | 66.7 | > 100 | > 100 | > 100 | > 100 |
| CC1(C)N=C(C(N)=O)c2ncn(CCO)c2N1 | > 100 | > 100 | > 100 | > 100 | > 100 | > 100 | > 100 | > 100 | > 100 | > 100 |
| ClC(Cl)(Cl)C1=N[C@H]2[C@H](Br)[C@@H]3O[C@@H](c4ccccc4)[C@H](c4ccccc4)O[C@@H]3[C@H]2O1 | 67.3 | 30.4 | 50.3 | 63.7 | 31.2 | 47.2 | 26.7 | 31.3 | 41 | 30 |
| Cc1cc(CNC(=O)OCc2ccccc2)c(C)c2c1Oc1ccccc1O2 | > 100 | > 100 | > 100 | 53.6 | > 100 | > 100 | 90.7 | > 100 | > 100 | > 100 |
| CNc1ccc(-c2nc3cc(C)ccc3o2)cc1 | > 100 | > 100 | > 100 | > 100 | > 100 | > 100 | > 100 | > 100 | > 100 | > 100 |
| COc1ccc(S(=O)(=O)O)cc1-n1nc(C(=O)Nc2ccccc2)n[n+]1-c1cc(S(=O)(=O)[O-])ccc1OC | > 100 | > 100 | > 100 | > 100 | > 100 | > 100 | > 100 | > 100 | > 100 | > 100 |
